From US12036234B2, “Heparin conjugated to collagen-binding peptides for targeting to biological and synthetic tissues” (Northwestern University, priority 2017, dated 2024)
“Also recorded” adds a separate entry of the source. Ends that are not written are not given here.

Legend:
collagen II = assay: Peptide binding to ECM protein coated plates (streptavidin-594 fluorescence); design: species or system chicken; conditions: biotinylated peptide
Procedure: (§1) Peptide and ECM Binding Specificity. Collagens I, II, III, and IV, fibronectin, laminin, and Matrigel were coated onto 96-well black plates at 10 μg/cm^2. Biotinylated CBP or CBPi were added to coated plates at 0, 1, 10, 100, and 1000 μM overnight at 4° C., after which the plates were washed three times with PBS. Fluorescent streptavidin-594 (4 μg/mL) was added to each well and incubated at room temperature for 2 h, then thoroughly washed with PBS. The plates were read with a fluorescence microplate reader for fluorescence intensity (Ex 591 nm, Em 614 nm). All data were normalized to the background fluorescence intensity of Streptavidin-594 alone directed at each coated protein.

Matrigel = assay: as above; conditions: 1000 μM biotinylated peptide
Procedure: as §1

laminin = target: T1, laminin (Mus musculus, UniProt P02468+P02469+P19137); assay: as above; conditions: 1000 μM biotinylated peptide
T1 construct: purchased Sigma-Aldrich
Procedure: as §1

collagen III = target: T2, collagen III (Homo sapiens, UniProt P02461); assay: as above; conditions: biotinylated peptide
T2 construct: purchased Sigma-Aldrich
T2 sequence (P02461 154-1221 limits assumed): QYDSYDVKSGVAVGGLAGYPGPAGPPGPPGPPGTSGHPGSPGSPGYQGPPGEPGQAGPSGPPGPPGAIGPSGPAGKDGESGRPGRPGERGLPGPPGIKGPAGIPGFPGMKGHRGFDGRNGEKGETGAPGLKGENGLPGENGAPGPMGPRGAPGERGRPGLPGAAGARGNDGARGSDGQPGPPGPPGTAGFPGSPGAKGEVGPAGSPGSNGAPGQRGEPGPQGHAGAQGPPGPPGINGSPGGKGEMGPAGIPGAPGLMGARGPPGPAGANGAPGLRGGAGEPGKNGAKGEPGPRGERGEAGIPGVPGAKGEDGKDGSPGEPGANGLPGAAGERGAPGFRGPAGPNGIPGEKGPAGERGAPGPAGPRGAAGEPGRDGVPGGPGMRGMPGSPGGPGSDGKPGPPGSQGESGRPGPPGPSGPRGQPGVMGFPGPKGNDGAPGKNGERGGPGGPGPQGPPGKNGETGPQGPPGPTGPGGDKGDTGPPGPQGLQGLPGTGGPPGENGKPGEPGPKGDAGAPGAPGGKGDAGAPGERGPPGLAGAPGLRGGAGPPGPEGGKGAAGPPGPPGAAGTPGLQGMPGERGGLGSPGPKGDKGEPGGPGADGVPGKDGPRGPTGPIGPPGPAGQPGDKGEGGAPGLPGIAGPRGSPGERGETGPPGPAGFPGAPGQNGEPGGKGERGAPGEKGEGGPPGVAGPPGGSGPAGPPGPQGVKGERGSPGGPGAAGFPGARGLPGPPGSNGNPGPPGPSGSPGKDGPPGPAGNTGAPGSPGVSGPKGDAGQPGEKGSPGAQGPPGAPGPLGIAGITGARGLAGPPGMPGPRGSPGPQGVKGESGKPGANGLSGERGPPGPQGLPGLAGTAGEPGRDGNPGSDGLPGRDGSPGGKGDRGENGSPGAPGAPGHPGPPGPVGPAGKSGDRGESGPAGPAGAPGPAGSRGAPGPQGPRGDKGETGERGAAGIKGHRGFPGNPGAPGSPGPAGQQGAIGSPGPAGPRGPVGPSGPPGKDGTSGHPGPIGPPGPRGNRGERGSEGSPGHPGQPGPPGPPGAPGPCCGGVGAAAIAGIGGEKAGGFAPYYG
Procedure: as §1

[1] = system: Human umbilical vein endothelial cells (HUVECs); assay: Endothelial cell adhesion and retention on modified ECM; type: cell-based; conditions: 4 weeks (day 28) in culture
Procedure: Addition of Endothelial Cells to Modified ECM. Human umbilical vein endothelial cells (HUVECs, Lonza) at passages 3-8 were cultured in EGM-2 and used for cell seeding. The following groups of ECM vascular grafts (1 cm in length each, n=3 per group) were prepared: (1) ECM control alone without heparin or peptide; (2) ECM incubated with free, unconjugated heparin sodium (1 mg/mL); (3) ECM incubated with CBPi conjugated to heparin (1 mg/mL); and (4) ECM incubated with CBP conjugated to heparin (1 mg/mL). HUVECs were seeded twice onto the lumen of each graft (10000 cells/cm^2 at each inoculation) with a 180° rotation of the graft at 30 min after initial seeding. Recellularized grafts were maintained in culture under static condition with medium changed every 2 days.
Cell Number and Viability Measurement. Resazurin was used to assess cell number and viability of HUVECs on ECM grafts over time. 16 Resazurin sodium (44 μM in EGM-2) was added to cell-laden, ECM-modified grafts and incubated for 2 h and the fluorescence intensity (Ex 560 nm, Em 590 nm) was read. The number of cells was calculated based on the fluorescence reading of serially diluted HUVEC suspensions incubated in resazurin solution to develop a standard curve. Prior to performing each measurement, cell seeded grafts were moved to a new low-attachment, multiwell plate to eliminate off target readings from cells that may have migrated off the graft.
Cell Staining and Fluorescence Microscopy. At 4 weeks after cell seeding, each cell-seeded graft was fixed with paraformaldehyde and stained with Phalloidin-488. Fluorescence microscopy (Nikon TE2000U, Japan) was performed on the flattened luminal surface of the graft.

fibronectin = assay: Peptide binding to ECM protein coated plates (streptavidin-594 fluorescence); design: species or system human; conditions: biotinylated peptide
Procedure: as §1

collagen IV = collagen IV (Mus musculus, UniProt P02463+P08122); assay: as above; design: purchased Sigma-Aldrich; conditions: 1000 μM biotinylated peptide; relative to background fluorescence at 0 μM
Procedure: as §1

collagen I = target: T3, collagen I (Rattus norvegicus, UniProt P02454+P02466); assay: as above; conditions: biotinylated peptide
T3 construct: purchased Sigma-Aldrich
Procedure: as §1

[2] = system: collagen I and collagen IV in decellularized rat aorta ECM and renal ECM; assay: Streptavidin-594 staining of biotinylated CBP on decellularized tissue; type: binding; conditions: biotinylated CBP at 100 μM
Description: FIG. 7: Immunofluorescence staining of collagen I and collagen IV in decellularized rat aorta ECM (A) and renal ECM (C). Streptavidin-594 staining of biotinylated CBP on decellularized rat aorta ECM (B) and renal ECM (D). Scale bar=100 μm.
The binding between collagens (types I and IV) and CBP, is predicted to be mediated by intermolecular forces between discrete amino acids within collagen and CBP^17 that contribute to the binding specificity observed above. The molecular composition of ECM is largely heterogeneous, including fibrous proteins such as collagens, soluble proteins such as fibronectin and laminin, and proteoglycans such as heparan sulfate, keratin sulfate, and chondroitin sulfate.^18 The detailed composition of ECM proteins also varies from tissue to tissue, however, ECM from most tissue types contains collagen I (interstitial matrix) and collagen IV (basement membrane).^18 Each collagen subtype is retained in decellularized tissues, specifically vascular (FIG. 7A) and renal tissues (FIG. 7C). […] Taken together, this delivery strategy using CBP as a localizing moiety specifically targets collagens (type IV in particular) and may be used to selectively carry bioactive molecules to the vasculature where collagen IV defines the subendothelial basement membrane that forms the vascular network, including the macro- and micro-vasculatures within all tissues and organs.

rat aorta ECM = assay: Heparin deposited and retained on aorta ECM (DMMB GAG assay); type: binding; conditions: immediately after treatment at 1 mg/mL (t=0)
Procedure: Heparin Immobilization onto Rat Aorta ECM. All animal experiments and procedures were approved by the Animal Care and Use Committee of Northwestern University and animal care was performed in accordance with the NIH Guide for Care and Use of Laboratory Animals. Male Sprague-Dawley rats weighing 200-250 g (Charles River Laboratories, Chicago, IL) were used as donors to recover the abdominal segment of the aorta. Rat aorta ECM was isolated via decellularization as described 13 using 1% Triton X for 48 h and 1.5% SDS for 48 h at room temperature, followed by 100 U/mL DNase I solution at 37° C. for 4 h. Aorta ECM was subsequently incubated with heparin sodium, CBP-conjugated heparin or CBPi-conjugated heparin (1 mg/mL) overnight at 4° C., followed by three washes with PBS to remove excessive and unbound heparin (FIG. 1B). ECM without heparin incubation served as negative, untreated controls.
Quantification of Heparin Deposited onto ECM. The amount of heparin immobilized onto aorta ECM was quantified using a GAG assay. […] Retention of heparin on ECM after CBP-heparin treatment was assessed by incubating heparinized ECM in endothelial growth medium (EGM-2, Lonza) at 37° C. and measuring the amount of heparin remaining on ECM weekly using a GAG assay. […]

rat platelet rich plasma = assay: Platelet adhesion to modified ECM (LDH assay); type: cell-based; conditions: ECM treated at 1 mg/mL
Procedure: Platelet Adhesion. The thrombogenic properties of modified ECM were evaluated by a platelet adhesion assay described previously.^13 ECM grafts were incubated in diluted rat platelet rich plasma ([…] platelet/mL) at 37° C. for 1 h, rinsed with warm PBS, and lysed with 2% Triton-X. Lactate dehydrogenase (LDH) released into the medium was measured by an LDH assay following the manufacturer's protocol (Roche Molecular Diagnostics, Pleasanton, CA). LDH measured from lysates of serially diluted platelets standardized the assay to quantify the concentration of deposited platelet on ECM.

[3] = system: recalcified porcine blood; assay: Clot formation of recalcified whole blood on ECM grafts
Procedure: Clot Formation of Recalcified Whole Blood. A recalcified whole blood clotting assay was performed to assess hemocompatibility of ECM grafts treated with or without the addition of heparin, alone or conjugated to CBP/CBPi.^15 Briefly, […] Each sample was weighed before and after incubation with recalcified blood, and the mass of the blood clotted on each sample was calculated and normalized to the weight of the ECM. Each sample containing clotted blood was subsequently embedded in paraffin, sectioned and stained with H&E for microscopic analysis.

[4] = target: T4, vascular endothelial growth factor, VEGF (Homo sapiens, UniProt P15692); assay: Growth factor binding to modified ECM (VEGF ELISA); conditions: after incubation in EGM-2 for 3 days
T4 construct: purchased Lonza (component of EGM-2 medium)
T4 sequence (P15692 27-191 isoform P15692-4): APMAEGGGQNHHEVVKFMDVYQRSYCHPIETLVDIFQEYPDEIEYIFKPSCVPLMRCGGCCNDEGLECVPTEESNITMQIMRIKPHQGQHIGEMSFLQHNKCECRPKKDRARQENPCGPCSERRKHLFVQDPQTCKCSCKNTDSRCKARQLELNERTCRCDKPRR
Procedure: Growth Factor Binding to Modified ECM. ECM samples treated with PBS alone, heparin alone, CBPi-heparin, or CBP-heparin were incubated in EGM-2 (containing 2 ng/mL recombinant human vascular endothelial growth factor, VEGF) for 3 days and washed with PBS to measure the degree of VEGF recruited to heparin modified ECM. ECM grafts before and after EGM-2 incubation were weighed and proteins were extracted as previously described using a urea buffer. 13 The amount of VEGF was measured using an ELISA for human and rat VEGF (Thermo Fisher, Waltham, MA).

factor Xa = conditions: unconjugated heparin sodium; cited from earlier work

T3 sequence (P02454 152-1207 limits assumed): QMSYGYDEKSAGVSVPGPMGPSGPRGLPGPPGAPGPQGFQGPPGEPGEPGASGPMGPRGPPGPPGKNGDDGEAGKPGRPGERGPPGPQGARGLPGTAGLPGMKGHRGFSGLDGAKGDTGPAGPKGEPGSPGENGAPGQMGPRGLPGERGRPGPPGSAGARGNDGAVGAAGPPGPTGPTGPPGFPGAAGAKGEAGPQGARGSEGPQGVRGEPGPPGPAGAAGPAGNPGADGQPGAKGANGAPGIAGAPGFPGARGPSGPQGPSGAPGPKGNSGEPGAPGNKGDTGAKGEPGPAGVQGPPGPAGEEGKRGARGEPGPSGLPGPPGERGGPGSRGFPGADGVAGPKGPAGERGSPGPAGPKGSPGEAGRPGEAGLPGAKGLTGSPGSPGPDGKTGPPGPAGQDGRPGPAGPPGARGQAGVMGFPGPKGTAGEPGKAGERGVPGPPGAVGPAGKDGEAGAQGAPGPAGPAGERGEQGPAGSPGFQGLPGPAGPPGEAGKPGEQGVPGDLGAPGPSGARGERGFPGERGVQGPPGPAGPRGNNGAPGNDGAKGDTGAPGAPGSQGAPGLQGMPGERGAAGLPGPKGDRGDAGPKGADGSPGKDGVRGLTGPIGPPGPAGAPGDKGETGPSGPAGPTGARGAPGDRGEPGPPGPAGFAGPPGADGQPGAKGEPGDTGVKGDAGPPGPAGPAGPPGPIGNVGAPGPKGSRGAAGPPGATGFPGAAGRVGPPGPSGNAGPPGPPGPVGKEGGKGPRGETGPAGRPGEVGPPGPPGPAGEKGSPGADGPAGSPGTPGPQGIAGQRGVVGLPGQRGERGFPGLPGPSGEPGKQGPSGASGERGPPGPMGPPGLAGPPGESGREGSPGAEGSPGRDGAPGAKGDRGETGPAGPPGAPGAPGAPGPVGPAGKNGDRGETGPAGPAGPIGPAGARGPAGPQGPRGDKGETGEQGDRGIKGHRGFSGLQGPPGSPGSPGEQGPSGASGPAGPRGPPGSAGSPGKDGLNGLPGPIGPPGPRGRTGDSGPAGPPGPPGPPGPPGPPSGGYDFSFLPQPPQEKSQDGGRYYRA
T3 sequence (P02466 86-1125 limits assumed): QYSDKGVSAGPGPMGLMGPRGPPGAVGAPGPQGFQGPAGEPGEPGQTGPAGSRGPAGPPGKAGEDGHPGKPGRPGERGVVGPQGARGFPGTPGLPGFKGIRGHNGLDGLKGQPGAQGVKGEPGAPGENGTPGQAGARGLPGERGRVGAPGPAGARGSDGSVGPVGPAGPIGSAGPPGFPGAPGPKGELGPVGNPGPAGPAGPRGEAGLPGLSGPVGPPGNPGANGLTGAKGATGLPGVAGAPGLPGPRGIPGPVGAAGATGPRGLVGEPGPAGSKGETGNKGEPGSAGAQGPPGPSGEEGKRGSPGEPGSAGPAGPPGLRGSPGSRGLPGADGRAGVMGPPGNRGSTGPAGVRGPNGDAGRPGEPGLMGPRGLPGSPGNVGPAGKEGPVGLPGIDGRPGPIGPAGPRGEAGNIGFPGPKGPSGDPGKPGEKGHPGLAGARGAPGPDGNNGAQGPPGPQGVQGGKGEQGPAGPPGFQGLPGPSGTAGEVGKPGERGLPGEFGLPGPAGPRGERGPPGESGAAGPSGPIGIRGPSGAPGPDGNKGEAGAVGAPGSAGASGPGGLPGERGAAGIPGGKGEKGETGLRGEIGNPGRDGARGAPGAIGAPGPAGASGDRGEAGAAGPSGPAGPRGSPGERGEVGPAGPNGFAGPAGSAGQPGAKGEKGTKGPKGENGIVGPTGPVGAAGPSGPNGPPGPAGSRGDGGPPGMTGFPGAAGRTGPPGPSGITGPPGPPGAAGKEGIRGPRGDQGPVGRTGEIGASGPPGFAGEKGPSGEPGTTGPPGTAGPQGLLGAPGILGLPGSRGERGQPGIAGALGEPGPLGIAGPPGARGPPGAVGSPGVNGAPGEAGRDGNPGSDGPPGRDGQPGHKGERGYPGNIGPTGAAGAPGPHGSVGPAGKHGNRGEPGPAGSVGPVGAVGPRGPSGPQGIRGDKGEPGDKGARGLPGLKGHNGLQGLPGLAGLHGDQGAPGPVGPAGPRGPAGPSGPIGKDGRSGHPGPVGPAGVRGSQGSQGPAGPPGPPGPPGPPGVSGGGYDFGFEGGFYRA
Sequence of collagen IV (P02463 173-1669): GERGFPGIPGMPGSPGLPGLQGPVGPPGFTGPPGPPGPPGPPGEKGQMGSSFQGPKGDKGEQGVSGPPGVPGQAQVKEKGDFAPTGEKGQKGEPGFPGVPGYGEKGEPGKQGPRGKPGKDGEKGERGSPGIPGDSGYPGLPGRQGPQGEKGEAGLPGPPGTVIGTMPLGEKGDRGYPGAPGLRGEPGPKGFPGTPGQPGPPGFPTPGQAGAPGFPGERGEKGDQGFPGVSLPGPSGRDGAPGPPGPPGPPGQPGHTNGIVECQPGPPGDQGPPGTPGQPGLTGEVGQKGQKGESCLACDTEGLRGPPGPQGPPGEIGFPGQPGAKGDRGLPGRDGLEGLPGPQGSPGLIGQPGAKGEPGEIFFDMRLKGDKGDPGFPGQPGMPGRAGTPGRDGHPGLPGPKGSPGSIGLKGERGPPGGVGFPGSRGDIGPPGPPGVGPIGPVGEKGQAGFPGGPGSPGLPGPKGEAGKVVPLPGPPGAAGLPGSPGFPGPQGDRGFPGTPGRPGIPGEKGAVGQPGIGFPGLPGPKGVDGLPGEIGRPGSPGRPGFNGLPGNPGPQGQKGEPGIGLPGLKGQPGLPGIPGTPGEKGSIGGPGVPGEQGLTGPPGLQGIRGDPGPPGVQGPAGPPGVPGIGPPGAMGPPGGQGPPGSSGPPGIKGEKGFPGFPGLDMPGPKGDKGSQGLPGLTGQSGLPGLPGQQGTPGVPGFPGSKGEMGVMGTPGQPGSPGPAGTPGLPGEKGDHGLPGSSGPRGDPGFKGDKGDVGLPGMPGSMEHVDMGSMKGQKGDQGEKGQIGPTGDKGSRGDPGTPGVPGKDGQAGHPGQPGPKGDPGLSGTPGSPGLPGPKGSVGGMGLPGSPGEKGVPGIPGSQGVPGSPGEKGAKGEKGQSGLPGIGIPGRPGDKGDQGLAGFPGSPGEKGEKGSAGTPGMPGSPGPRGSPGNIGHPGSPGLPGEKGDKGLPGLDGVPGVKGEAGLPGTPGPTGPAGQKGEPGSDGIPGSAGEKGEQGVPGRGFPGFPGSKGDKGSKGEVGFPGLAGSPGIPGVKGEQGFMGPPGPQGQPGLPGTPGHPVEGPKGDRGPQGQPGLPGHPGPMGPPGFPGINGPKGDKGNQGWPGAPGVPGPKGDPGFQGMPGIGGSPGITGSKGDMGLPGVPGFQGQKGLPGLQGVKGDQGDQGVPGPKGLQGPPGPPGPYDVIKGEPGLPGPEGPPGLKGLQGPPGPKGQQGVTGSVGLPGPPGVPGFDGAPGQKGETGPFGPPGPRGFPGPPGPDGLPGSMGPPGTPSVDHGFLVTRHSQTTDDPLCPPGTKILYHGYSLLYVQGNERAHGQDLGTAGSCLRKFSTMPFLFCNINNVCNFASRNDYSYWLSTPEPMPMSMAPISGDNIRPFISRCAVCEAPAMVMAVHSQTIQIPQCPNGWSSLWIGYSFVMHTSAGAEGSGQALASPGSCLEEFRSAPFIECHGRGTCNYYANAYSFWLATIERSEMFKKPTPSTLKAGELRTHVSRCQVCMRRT
Sequence of collagen IV (P08122 184-1707): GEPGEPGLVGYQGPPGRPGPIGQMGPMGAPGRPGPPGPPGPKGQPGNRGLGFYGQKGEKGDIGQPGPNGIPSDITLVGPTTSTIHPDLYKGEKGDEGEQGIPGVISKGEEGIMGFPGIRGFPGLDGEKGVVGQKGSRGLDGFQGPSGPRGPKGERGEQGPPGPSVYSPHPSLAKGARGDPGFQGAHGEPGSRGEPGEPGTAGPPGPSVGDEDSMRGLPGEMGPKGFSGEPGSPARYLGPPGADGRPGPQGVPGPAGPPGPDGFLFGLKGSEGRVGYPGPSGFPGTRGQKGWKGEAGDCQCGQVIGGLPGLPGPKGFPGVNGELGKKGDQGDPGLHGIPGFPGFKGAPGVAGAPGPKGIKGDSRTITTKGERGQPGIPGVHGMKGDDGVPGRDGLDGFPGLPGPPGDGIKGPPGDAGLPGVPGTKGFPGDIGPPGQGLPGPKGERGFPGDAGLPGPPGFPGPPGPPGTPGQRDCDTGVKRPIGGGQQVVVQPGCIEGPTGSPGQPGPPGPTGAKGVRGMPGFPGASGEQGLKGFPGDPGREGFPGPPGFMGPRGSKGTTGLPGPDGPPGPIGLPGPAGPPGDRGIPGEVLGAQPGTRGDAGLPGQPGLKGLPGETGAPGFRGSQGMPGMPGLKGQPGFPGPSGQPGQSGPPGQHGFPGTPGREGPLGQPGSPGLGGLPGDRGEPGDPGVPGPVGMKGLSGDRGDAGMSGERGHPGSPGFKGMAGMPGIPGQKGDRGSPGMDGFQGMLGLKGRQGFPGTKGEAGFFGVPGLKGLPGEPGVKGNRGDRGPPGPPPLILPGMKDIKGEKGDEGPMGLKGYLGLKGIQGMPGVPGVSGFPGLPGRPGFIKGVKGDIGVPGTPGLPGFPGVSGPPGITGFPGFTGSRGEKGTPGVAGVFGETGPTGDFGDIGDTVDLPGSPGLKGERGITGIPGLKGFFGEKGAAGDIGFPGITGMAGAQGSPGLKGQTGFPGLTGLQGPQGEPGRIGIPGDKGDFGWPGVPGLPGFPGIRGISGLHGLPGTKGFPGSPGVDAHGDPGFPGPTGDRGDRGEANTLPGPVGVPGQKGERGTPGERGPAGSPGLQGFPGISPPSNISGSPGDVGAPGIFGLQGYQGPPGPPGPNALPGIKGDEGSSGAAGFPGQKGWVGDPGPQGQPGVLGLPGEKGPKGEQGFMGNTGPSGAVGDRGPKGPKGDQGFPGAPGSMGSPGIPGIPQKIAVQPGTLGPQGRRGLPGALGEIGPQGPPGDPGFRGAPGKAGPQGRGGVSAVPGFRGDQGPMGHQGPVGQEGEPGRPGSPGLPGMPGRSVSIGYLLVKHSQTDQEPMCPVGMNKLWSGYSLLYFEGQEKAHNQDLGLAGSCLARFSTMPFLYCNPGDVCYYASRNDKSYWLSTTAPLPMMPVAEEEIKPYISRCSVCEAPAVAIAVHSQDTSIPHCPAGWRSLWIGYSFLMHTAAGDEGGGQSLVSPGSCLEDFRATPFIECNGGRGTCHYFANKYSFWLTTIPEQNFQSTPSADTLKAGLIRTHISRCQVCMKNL

Substance	binding to collagen II (collagen II)	binding to Matrigel (Matrigel)	binding to laminin (laminin)	binding to collagen III (collagen III)	adherent endothelial cells on ECM grafts [1]	adherent endothelial cells on ECM grafts ([1]; listed as BCPi)	binding to fibronectin (fibronectin)	increase in surface fluorescence intensity on collagen IV coated surface (collagen IV)	binding to collagen I coated surfaces (collagen I)	colocalization with collagens in decellularized vascular and renal tissue [2]	glycosaminoglycan (heparin) content of ECM (rat aorta ECM) [μg GAG/mg ECM]	reduction in the number of adherent platelets compared to PBS-treated ECM (rat platelet rich plasma) [%]	blood clots observed on ECM grafts (H&E) ([3]; decellularized vascular ECM grafts)	mass of clot/mass of ECM×100% ([3]; treated ECM with recalcified blood, 30 min point) [%]	VEGF concentration within ECM grafts [4] [pg/mg ECM]	anti-Factor Xa activity of reference standard (factor Xa) [U/mg]
CDEFQRSTTY [CBPi]	Neither CBP nor CBPi binds	minimal, through significant, levels of binding	minimal, through significant, levels of binding	Neither CBP nor CBPi binds	did not preserve endothelial cell adhesion	Minimal to no cells remain	Neither CBP nor CBPi binds	did not result in any increase								
CQDSETRTFY (not fully specified; also: biotin, place not given here; listed as Homo sapiens) [CBP]	Neither CBP nor CBPi binds	minimal, through significant, levels of binding	minimal, through significant, levels of binding	Neither CBP nor CBPi binds	did not preserve endothelial cell adhesion; also recorded: Minimal to no cells remain		Neither CBP nor CBPi binds		to a much lesser extent	colocalized with each subtype but was more prominent around collagen IV						
Heparin sodium					decreased significantly						2.81±0.19	5.7±6.2	Thick blood clots	612.1±126.0	46.5±12.1	200
